The text below walks through data of patent publication US12091425B2 (AMGEN INC., priority 2016, dated 2024).

SMILES strings stand for the structures.

The first assay deals with T1, Mcl-1/Bim interaction, recombinant human Mcl-1 (171-327) (Homo sapiens, UniProt Q07820).
T1 construct: made in house
T1 sequence (Q07820 171-327): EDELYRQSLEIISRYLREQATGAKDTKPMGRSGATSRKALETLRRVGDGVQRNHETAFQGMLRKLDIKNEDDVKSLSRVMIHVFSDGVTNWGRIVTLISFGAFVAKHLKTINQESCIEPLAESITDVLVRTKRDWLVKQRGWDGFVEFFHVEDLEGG
Put plainly: Cell free Mcl-1: Bim Affinity Assay (Mcl-1 HTRF). The class given is binding. As to conditions: TR-FRET, 0.1 nM Mcl-1 (171-327), 0.05 nM biotin-Bim (51-76). Put shortly: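 Biotin-Bim(51-76) peptide, TR-FRET readout, overnight incubation; IC50 from duplicate competition curves, 4-parameter fit.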
(In TR-FRET formats the signal depends on donor and acceptor labels being close together.)
One may read the IC50 as the midpoint of a concentration-inhibition curve. For the molecule `C[C@@H]1CC/C=C/[C@H](OCC(=O)N(C)C)[C@@H]2CC[C@H]2CN2C[C@@]3(CCCc4cc(Cl)ccc43)COc3ccc(cc32)C(=O)NS1(=O)=O` [Example 420, 2-(((1S,3′R,6′R,7′S,8′E,12′R)-6-chloro-12′-methyl-13′,13′-dioxido-15′-oxo-3,4-dihydro-2H-spiro[naphthalene-1,22′-[20]oxa[13]thia[1,14]diazatetracyclo[14.7.2.0^3,6.0^19,24]pentacosa [8,16,18,24]tetraen]-7′-yl)oxy)-N,N-dimethylacetamide], the IC50 amounted to 0.349 nM.
On the same count and under the same terms, with `O=C1NS(=O)(=O)[C@H]2C[C@H](CC[C@H](O)[C@@H]3CC[C@H]3CN3C[C@@]4(CCCc5cc(Cl)ccc54)COc4ccc1cc43)C2` [Example 103, (1S,3′R,6′R,7′S,10′R,12′R)-6-chloro-7′-hydroxy-3,4-dihydro-2H,15′H-spiro[naphthalene-1,22′-[20]oxa[13]thia[1,14]diazapentacyclo[14.7.2.1^10,120^3,6.0^19,24]hexacosa[16,18,24]trien]-15′-one 13′,13′-dioxide] the figure was 1.43 nM.
Still for that read-out and setting: with `O=C1CCCS(=O)(=O)NC(=O)c2ccc3c(c2)N(C[C@@H]2CC[C@H]2CN1)C[C@@]1(CCCc2cc(Cl)ccc21)CO3` [Example 370, (1S,3′R,6′R)-6-chloro-3,4-dihydro-2H,9′H,15′H-spiro[naphthalene-1,22′-[20]oxa[13]thia[1,8,14]triazatetracyclo[14.7.2.0^3,6.0^19,24]pentacosa[16,18,24]triene]-9′,15′-dione 13′,13′-dioxide] the figure was 4.5 nM.
On the same count and under the same terms, in the case of `COC[C@H]1C/C=C/[C@H](OC)[C@@H]2CC[C@H]2CN2C[C@@]3(CCCc4cc(Cl)ccc43)COc3ccc(cc32)C(=O)NS(=O)(=O)[C@@H]1C` [Example 2, (1S,3′R,6′R,7′S,8′E,11′R,12′R)-6-chloro-7′-methoxy-11′-(methoxymethyl)-12′-methyl-3,4-dihydro-2H,15′H-spiro[naphthalene-1,22′-[20]oxa[13]thia[1,14]diazatetracyclo[14.7.2.0^3,6.0^19,24]pentacosa [8,16,18,24]tetraen]-15′-one 13′,13′-dioxide] it was 6.85 nM.
On to `CC[C@@H]1CCCC[C@@H](NC(=O)C(C)C)[C@@H]2CC[C@H]2CN2C[C@@]3(CCCc4cc(Cl)ccc43)COc3ccc(cc32)C(=O)NS1(=O)=O` [Example 1083], for which the IC50 stood at 2.19 nM.
Same read-out and setting: in the case of `CC[C@@H]1CC/C=C/[C@H](OCC(C)(C)O)[C@@H]2CC[C@H]2CN2C[C@@]3(CCCc4cc(Cl)ccc43)COc3ccc(cc32)C(=O)NS1(=O)=O` [Example 972, (1S,3′R,6′R,7′S,8′E,12′R)-6-chloro-12′-ethyl-7′-(2-hydroxy-2-methylpropoxy)-3,4-dihydro-2H,15′H-spiro[naphthalene-1,22′-[20]oxa[13]thia[1,14]diazatetracyclo[14.7.2.0^3,6.0^19,24]pentacosa [8,16,18,24]tetraen]-15′-one 13′,13′-dioxide] it was 1.59 nM; in that of `CCN1CCCC[C@H](O)[C@@H]2CC[C@H]2CN2C[C@@]3(CCCc4cc(Cl)ccc43)COc3ccc(cc32)C(=O)NS1(=O)=O` [Example 86, (1S,3′R,6′R,7′S)-6-chloro-12′-ethyl-7′-hydroxy-3,4-dihydro-2H,15′H-spiro[naphthalene-1,22′-[20]oxa[13]thia[1,12,14]triazatetracyclo[14.7.2.0^3,6.0^19,24]pentacosa[16,18,24]trien]-15′-one 13′,13′-dioxide], 4.04 nM; in that of `CCOC[C@H]1CC/C=C/[C@H](O)[C@@H]2CC[C@H]2CN2C[C@@]3(CCCc4cc(Cl)ccc43)COc3ccc(cc32)C(=O)NS1(=O)=O` (single isomer, unassigned) [Example 440], 2.44 nM.
`O=C1NS(=O)(=O)[C@H]2C[C@@H](/C=C/[C@H](O)[C@@H]3CC[C@H]3CN3C[C@@]4(CCCc5cc(Cl)ccc54)COc4ccc1cc43)C2` [Example 100, (1S,3′R,6′R,7′S,8′E,10′S,12′R)-6-chloro-7′-hydroxy-3,4-dihydro-2H,15′H-spiro[naphthalene-1,22′-[20]oxa[13]thia[1,14]diazapentacyclo[14.7.2.1^10,12.0^3,6.0^19,24]hexacosa[8,16,18,24]tetraen]-15′-one 13′,13′-dioxide]: the half-maximal inhibitory concentration (IC50) stood at 2.45 nM.
`O=C1NS(=O)(=O)[C@@H](CO)CC/C=C\C[C@@H]2CC[C@H]2CN2C[C@@]3(CCCc4cc(Cl)ccc43)COc3ccc1cc32` (single isomer, unassigned) [Example 451]: the IC50 was 11.5 nM.
Same read-out and setting: in the case of `O=C1NS(=O)(=O)[C@H]2CC[C@@H]2CCC[C@H](O)[C@@H]2CC[C@H]2CN2C[C@@]3(CCCc4cc(Cl)ccc43)COc3ccc1cc32` [Example 92, (1S,3′R,6′R,7′S,11′S,14′S)-6-chloro-7′-hydroxy-3,4-dihydro-2H,17′H-spiro[naphthalene-1,24′-[22]oxa[15]thia[1,16]diazapentacyclo[16.7.2.0^3,6.0^11,14.0^21,26]heptacosa[18,20,26]trien]-17′-one 15′,15′-dioxide] it was 0.781 nM; in that of `CC[C@@H]1CC/C=C\[C@@H](NC(=O)C(C)C)[C@@H]2CC[C@H]2CN2C[C@@]3(CCCc4cc(Cl)ccc43)COc3ccc(cc32)C(=O)NS1(=O)=O` [Example 1082], 18 nM.

Still in this assay, the particulars now being: cell free Mcl-1:Bim TR-FRET, recombinant human Mcl-1 (171-327).
`CC[C@@H]1C/C=C/[C@H](O)[C@@H]2CC[C@H]2CN2C[C@@]3(CCCc4cc(Cl)ccc43)COc3ccc(cc32)C(=O)NS1(=O)=O` [Example 762, (1S,3′R,6′R,7′S,8′E,11′R)-6-chloro-7′-hydroxy-11′-ethyl-3,4-dihydro-2H,14′H-spiro[naphthalene-1,21′-[19]oxa[12]thia[1,13]diazatetracyclo[13.7.2.0^3,6.0^18,23]tetracosa[8,15,17,23]tetraen]-14′-one 12′,12′-dioxide]: the half-inhibitory concentration (IC50) turned out to be 0.576 nM.
The same measure, in the same setting: in the case of `O=C1NS(=O)(=O)CCC[C@@H](O)CC[C@@H]2CC[C@H]2CN2C[C@@]3(CCCc4cc(Cl)ccc43)COc3ccc1cc32` (single isomer, unassigned) [Example 503, (1S,3′R,6′S,9′S)-6-chloro-9′-hydroxy-3,4-dihydro-2H,15′H-spiro[naphthalene-1,22′-[20]oxa[13]thia[1,14]diazatetracyclo[14.7.2.0^3,6.0^19,24]pentacosa [16,18,24]trien]-15′-one 13′,13′-dioxide or (1S,3′R,6′S,9′R)-6-chloro-9′-hydroxy-3,4-dihydro-2H,15′H-spiro[naphthalene-1,22′-[20]oxa[13]thia[1,14]diazatetracyclo[14.7.2.0^3,6.0^19,24]pentacosa [16,18,24]trien]-15′-one 13′,13′-dioxide] it was 3.96 nM; in that of `O=C1NS(=O)(=O)CC/C=C\CC[C@@H]2CC[C@H]2CN2C[C@@]3(CCCc4cc(Cl)ccc43)COc3ccc1cc32` [Example 499, (1S,3′R,6′R,9′Z)-6-chloro-3,4-dihydro-2H,15′H-spiro[naphthalene-1,22′-[20]oxa[13]thia[1,14]diazatetracyclo[14.7.2.0^3,6.0^19,24]pentacosa [9,16,18,24]tetraen]-15′-one 13′,13′-dioxide], 24 nM; in that of `O=C1NS(=O)(=O)CCCCC[C@H](NCCO)[C@@H]2CC[C@H]2CN2C[C@@]3(CCCc4cc(Cl)ccc43)COc3ccc1cc32` (single isomer, unassigned) [Example 929], 40 nM.
Still for that read-out and setting: in the case of `COC1C=CCC(OC)C(C)S(=O)(=O)NC(=O)c2ccc3c(c2)N(CC2CCC21)CC1(CCCc2cc(Cl)ccc21)CO3` (single isomer, unassigned) [Example 717] it was 28.6 nM.
